This is an account of results in publication PMC7530112 (European journal of medicinal chemistry, 2020).

One data set relates to HIV-1NL4-3. As to the kind of experiment: Anti-HIV-1 assay in TZM-GFP cells. Particulars: for Inhibition% at 2 μM: 2 μM compound; for Inhibition% at 20 μM: 20 μM compound; for fold higher antiviral potency than PF74: EC50 compared with PF74.
Data set [1] is described as follows: Microsomal stability assay, human liver microsomes. Conditions: without Cobi; for Phase I metabolic stability t1/2, HLM: 1 μM compound, 0.5 mg/mL microsomal protein, NADPH. For orientation: Microsomes from liver hold many membrane-bound enzymes, among them those of drug oxidation.
A short description of data set [2]: Microsomal stability assay, mouse liver microsomes. Particulars: without Cobi, 1 μM compound, 0.5 mg/mL microsomal protein, NADPH.

Take “(S)-N-(3-Fluorophenyl)-N-methyl-2-(2-(naphthalen-2-yl)acetamido)-3-phenylpropanamide [Compound 29]”: in the data set with HIV-1NL4-3, the “Inhibition% at 2 μM” value is reported as 0% and the “Inhibition% at 20 μM” value is 97%. As to “(S)-2-(2-(1,3-Dimethyl-2,6-dioxo-1,2,3,6-tetrahydro-7H-purin-7-yl)acetamido)-N-ethyl-N,3-diphenylpropanamide [Compound 43]”, in the data set on HIV-1NL4-3, the “Inhibition% at 2 μM” value came out at 0% and the “Inhibition% at 20 μM” value came to 94%.

As to “N-(3-Bromophenyl)-2-(2-(2,4-dioxo-1,3-diazaspiro[4.5]decan-3-yl)acetamido)-N-methyl-3-phenylpropanamide [Compound 52]”, the “Inhibition% at 20 μM” value with HIV-1NL4-3 is on record as “−/36%”. As for “(S)-2-(2-(5-Hydroxy-1H-indol-3-yl)acetamido)-N-methyl-3-phenyl-N-(p-tolyl)propanamide [Compound 9]”, the “fold higher antiviral potency than PF74” value in the data set on HIV-1NL4-3 was “up to 20 fold”.

Regarding “(S)-N-Ethyl-2-(2-(naphthalen-1-yl)acetamido)-N,3-diphenylpropanamide [Compound 36]”, in the data set on HIV-1NL4-3, the “Inhibition% at 2 μM” value is on record as 53% and the “Inhibition% at 20 μM” value is 98%. In the case of “2-(2-(2,4-Dioxo-1,3-diazaspiro[4.5]decan-3-yl)acetamido)-N-methyl-N,3-diphenylpropanamide [Compound 44]”, in the data set with HIV-1NL4-3, the “Inhibition% at 20 μM” value is on record as “−/89%”. For “(S)-2-(2-(1,3-Dimethyl-2,6-dioxo-1,2,3,6-tetrahydro-7H-purin-7-yl)acetamido)-N-(3-fluorophenyl)-N-methyl-3-phenylpropanamide [Compound 40]”, in the data set with HIV-1NL4-3, the “Inhibition% at 2 μM” value is given as 1% and the “Inhibition% at 20 μM” value is recorded as 67%. For the molecule “N-(3-Chlorophenyl)-2-(2-(2,4-dioxo-1,3-diazaspiro[4.5]decan-3-yl)acetamido)-N-methyl-3-phenylpropanamide [Compound 51]”, in the data set on HIV-1NL4-3, the “Inhibition% at 2 μM” value is 9% and the “Inhibition% at 20 μM” value is 98%. For the molecule “(S)-N-(3-Chlorophenyl)-2-(2-(5-hydroxy-1H-indol-3-yl)acetamido)-N-methyl-3-phenylpropanamide [Compound 13]”, the “fold potency drop on moving the Cl from 4 position to 3” value in the data set with HIV-1NL4-3 (compared with 4-Cl analog 12) was 10 fold. As to “2-(2-(2,4-Dioxo-1,3-diazaspiro[4.5]decan-3-yl)acetamido)-N-(3-fluorophenyl)-N-methyl-3-phenylpropanamide [Compound 49]”, in the data set with HIV-1NL4-3, the “Inhibition% at 2 μM” value is 24% and the “Inhibition% at 20 μM” value is listed as 98%.

For the molecule “(S)-2-(2-(5-Hydroxy-1H-indol-3-yl)acetamido)-N-methyl-N,3-diphenylpropanamide [Compound 8]”, the “fold higher antiviral potency than PF74” value in the data set with HIV-1NL4-3 was “up to 20 fold”. Consider “(S)-N-Methyl-2-(2-(naphthalen-2-yl)acetamido)-N,3-diphenylpropanamide [Compound 25]”, for which, in data set [1], the “Phase I metabolic stability t1/2, HLM” value was 108 s. In data set [2], the “Phase I metabolic stability t1/2, MLM” value is 30 s. In the data set on HIV-1NL4-3, the “Inhibition% at 2 μM” value worked out at 40% and the “Inhibition% at 20 μM” value stood at 98%.

With “(S)-N-Methyl-2-(2-(naphthalen-2-yl)acetamido)-3-phenyl-N-(p-tolyl)propanamide [Compound 26]”, in the data set with HIV-1NL4-3, the “Inhibition% at 2 μM” value came to 80% and the “Inhibition% at 20 μM” value is listed as 99%.

On to “2-(2-(2,4-Dioxo-1,3-diazaspiro[4.5]decan-3-yl)acetamido)-N-ethyl-N,3-diphenylpropanamide [Compound 53]”, for which the “Inhibition% at 20 μM” value in the data set with HIV-1NL4-3 is “−/92%”.

Take “(S)-N-Methyl-2-(2-(naphthalen-1-yl)acetamido)-3-phenyl-N-(p-tolyl)propanamide [Compound 32]”: in the data set on HIV-1NL4-3, the “Inhibition% at 2 μM” value amounted to 96% and the “Inhibition% at 20 μM” value stood at 100%. Turning to “(2S)-N-(4-Chlorophenyl)-N-methyl-2-(2-(7-methyl-2-oxoindolin-3-yl)acetamido)-3-phenylpropanamide [Compound 17]”, in the data set on HIV-1NL4-3, the “Inhibition% at 2 μM” value worked out at 17% and the “Inhibition% at 20 μM” value was 96%. On to “(S)-N-(3-Chlorophenyl)-2-(2-(1,3-dimethyl-2,6-dioxo-1,2,3,6-tetrahydro-7H-purin-7-yl)acetamido)-N-methyl-3-phenylpropanamide [Compound 42]”, for which, in the data set with HIV-1NL4-3, the “Inhibition% at 2 μM” value is 0% and the “Inhibition% at 20 μM” value amounted to 71%.

With `CN(C(=O)C(Cc1ccccc1)NC(=O)CN1C(=O)NC2(CCCCC2)C1=O)c1ccc(F)cc1` (stereo not shown) [Compound 48, 2-(2-(2,4-Dioxo-1,3-diazaspiro[4.5]decan-3-yl)acetamido)-N-(4-fluorophenyl)-N-methyl-3-phenylpropanamide], the “Phase I metabolic stability t1/2, HLM” value in data set [1] was 66 s. The “Phase I metabolic stability t1/2, MLM” value in data set [2] stood at 30 s. Further, in the data set with HIV-1NL4-3, the “Inhibition% at 2 μM” value is listed as 9% and the “Inhibition% at 20 μM” value amounted to 99%.

In the case of “(2S)-2-(2-(4,7-Dimethyl-2-oxoindolin-3-yl)acetamido)-N-methyl-N,3-diphenylpropanamide [Compound 20]”, the “Phase I metabolic stability t1/2, HLM” value in data set [1] worked out at 90 s. The “Phase I metabolic stability t1/2, MLM” value in data set [2] stood at 36 s. In the case of “(S)-N-(4-Chlorophenyl)-2-(2-(1,3-dimethyl-2,6-dioxo-1,2,3,6-tetrahydro-7H-purin-7-yl)acetamido)-N-methyl-3-phenylpropanamide [Compound 41]”, in the data set on HIV-1NL4-3, the “Inhibition% at 2 μM” value is given as 6% and the “Inhibition% at 20 μM” value amounted to 96%. In the case of “(S)-N-(3-Fluorophenyl)-N-methyl-2-(2-(naphthalen-1-yl)acetamido)-3-phenylpropanamide [Compound 35]”, in the data set on HIV-1NL4-3, the “Inhibition% at 2 μM” value was determined as 44% and the “Inhibition% at 20 μM” value amounted to 97%. “(S)-2-(2-(5-Methoxy-1H-indol-3-yl)acetamido)-N-methyl-N,3-diphenylpropanamide [Compound 3]”: in data set [1], the “Phase I metabolic stability t1/2, HLM” value turned out to be 72 s. The “Phase I metabolic stability t1/2, MLM” value in data set [2] was determined as 30 s. As to `COc1ccc(N(C)C(=O)C(Cc2ccccc2)NC(=O)CN2C(=O)NC3(CCCCC3)C2=O)cc1` (stereo not shown) [Compound 46, 2-(2-(2,4-Dioxo-1,3-diazaspiro[4.5]decan-3-yl)acetamido)-N-(4-methoxyphenyl)-N-methyl-3-phenylpropanamide], in data set [1], the “fold improved half-life over PF74 in HLMs” value is 7 to 10 fold and the “Phase I metabolic stability t1/2, HLM” value stood at 312 s. For the same molecule, the “Phase I metabolic stability t1/2, MLM” value in data set [2] was determined as 42 s. The “Inhibition% at 20 μM” value in the data set with HIV-1NL4-3 is given as “−/93%”.

With “(S)-2-(2-(1,3-Dimethyl-2,6-dioxo-1,2,3,6-tetrahydro-7H-purin-7-yl)acetamido)-N-(4-fluorophenyl)-N-methyl-3-phenylpropanamide [Compound 39]”, in the data set on HIV-1NL4-3, the “Inhibition% at 2 μM” value is 14% and the “Inhibition% at 20 μM” value is reported as 85%. Turning to “(S)-N-(3-Chlorophenyl)-N-methyl-2-(2-(naphthalen-1-yl)acetamido)-3-phenylpropanamide [Compound 34]”, in the data set on HIV-1NL4-3, the “Inhibition% at 2 μM” value was 53% and the “Inhibition% at 20 μM” value amounted to 96%. “(S)-N-Methyl-2-(2-(naphthalen-1-yl)acetamido)-N,3-diphenylpropanamide [Compound 31]”: the “Phase I metabolic stability t1/2, HLM” value in data set [1] stood at 36 s. Besides, in data set [2], the “Phase I metabolic stability t1/2, MLM” value was 30 s. In addition, in the data set on HIV-1NL4-3, the “Inhibition% at 2 μM” value stood at 66% and the “Inhibition% at 20 μM” value came out at 100%. For the molecule “2-(2-(2,5-Dioxo-3’,4’-dihydro-2’H-spiro[imidazolidine-4,1’-naphthalen]-1-yl)acetamido)-N-(4-methoxyphenyl)-N-methyl-3-phenylpropanamide [Compound 56]”, the “Inhibition% at 20 μM” value in the data set on HIV-1NL4-3 is given as “−/20%”. As to “(S)-N-(4-Chlorophenyl)-2-(2-(5-methoxy-1H-indol-3-yl)acetamido)-N-methyl-3-phenylpropanamide [Compound 7]”, in data set [1], the “Phase I metabolic stability t1/2, HLM” value came to 108 s. In data set [2], the “Phase I metabolic stability t1/2, MLM” value is 36 s. In the case of “2-(2-(2,5-Dioxo-3’,4’-dihydro-2’H-spiro[imidazolidine-4,1’-naphthalen]-1-yl)acetamido)-N-methyl-3-phenyl-N-(p-tolyl)propanamide [Compound 57]”, in the data set with HIV-1NL4-3, the “Inhibition% at 20 μM” value was “−/41%”.

Consider “(S)-2-(2-(1,3-Dimethyl-2,6-dioxo-1,2,3,6-tetrahydro-7H-purin-7-yl)acetamido)-N-methyl-3-phenyl-N-(p-tolyl)propanamide [Compound 38]”, for which, in the data set on HIV-1NL4-3, the “Inhibition% at 2 μM” value was found to be 18% and the “Inhibition% at 20 μM” value turned out to be 98%. For the molecule “2-(2-(2,5-Dioxo-3’,4’-dihydro-2’H-spiro[imidazolidine-4,1’-naphthalen]-1-yl)acetamido)-N-methyl-N,3-diphenylpropanamide [Compound 54]”, the “Inhibition% at 20 μM” value with HIV-1NL4-3 is “−/32%”.

Take “2-(2-(2,5-Dioxo-3’,4’-dihydro-2’H-spiro[imidazolidine-4,1’-naphthalen]-1-yl)acetamido)-N,3-diphenylpropanamide [Compound 55]”: in the data set with HIV-1NL4-3, the “Inhibition% at 20 μM” value is listed as “−/22%”. Consider “(2S)-N-(3-Fluorophenyl)-N-methyl-2-(2-(7-methyl-2-oxoindolin-3-yl)acetamido)-3-phenylpropanamide [Compound 19]”, for which, in the data set on HIV-1NL4-3, the “Inhibition% at 2 μM” value was 0% and the “Inhibition% at 20 μM” value turned out to be 93%. Consider “2-(2-(2,4-Dioxo-1,3-diazaspiro[4.5]decan-3-yl)acetamido)-N,3-diphenylpropanamide [Compound 45]”, for which the “Inhibition% at 20 μM” value in the data set on HIV-1NL4-3 was “−/0%”. For “(S)-N-(4-Chlorophenyl)-2-(2-(5-hydroxy-1H-indol-3-yl)acetamido)-N-methyl-3-phenylpropanamide [Compound 12]”, the “fold higher antiviral potency than PF74” value in the data set on HIV-1NL4-3 is “up to 20 fold”.

Consider “(S)-N-Ethyl-2-(2-(naphthalen-2-yl)acetamido)-N,3-diphenylpropanamide [Compound 30]”, for which, in the data set with HIV-1NL4-3, the “Inhibition% at 2 μM” value is reported as 46% and the “Inhibition% at 20 μM” value came out at 97%. The matching figures for “(S)-N-(3-Chlorophenyl)-N-methyl-2-(2-(naphthalen-2-yl)acetamido)-3-phenylpropanamide [Compound 28]”: 0% and 94%.
